Measured values from US11453667B2, “Pyridone-pyrimidine derivative acting as KRASG12C mutein inhibitor” (MEDSHINE DISCOVERY INC., priority 2018, dated 2022).

Tests used:
[1] = system: NCI-H358 human non-small cell lung cancer cells with KRAS G12C mutation; test: Cell experiment: anti-proliferative activity, CellTiter-Glo, NCI-H358; format: cell-based; details: Homo sapiens, NCI-H358, 120 h, 5 days culture
Method: (§1) This experiment is intended to verify that the compounds of the present invention have an inhibitory effect on the proliferation of NCI-H358 human non-small cell lung cancer cells with KRAS G12C mutation, MIA PaCa2 human pancreatic cancer cells with KRAS G12C mutation and wild-type A375 human malignant melanoma cells.
(§2) 40 μl of phosphate buffer was added to the peripheral wells of three 384-well microplates respectively, and 40 μl of cell suspension to be tested was added to the other wells of each plate respectively (plate 1: NCI-H358 cell suspension containing 500 NCI-H358 cells; plate 2: MIAPaCa2 cell suspension containing 300 MIAPaCa2 cells; plate 3: A375 cell suspension containing 300 A375 cells). The three cell plates were then placed in a carbon dioxide incubator and incubated overnight. Echo was used to perform a 3-fold gradient dilution of the compounds to be tested, and each compound was diluted with 10 concentration gradients (diluted from 50 μM to 0.003 μM), 100 nl of which was respectively added to the corresponding wells of the cell plates; after dosing, 40 μL of phosphate buffer was added to each well of rows A and P and columns 1 and 24, and then the cell plates were put back to the carbon dioxide incubator for culturing for 5 days. 20 μl of Promega CellTiter-Glo reagent per well was added to the cell plates, which was shaken at room temperature for 10 minutes in the dark to stabilize the luminescence signal. A PerkinElmer Envision multi-label analyzer was used for reading.
(§3) Data analysis: IC50 results were analyzed by GraphPad Prism 5.0 software […].

[2] = system: wild-type A375 human malignant melanoma cells; test: Cell experiment: anti-proliferative activity, CellTiter-Glo, A375; format: cell-based; details: Homo sapiens, A-375, 120 h, 5 days culture
Method: as §1, §2, §3

[3] = system: MIA PaCa2 human pancreatic cancer cells with KRAS G12C mutation; test: Cell experiment: anti-proliferative activity, CellTiter-Glo, MIA PaCa2; format: cell-based; details: Homo sapiens, MIA PaCa-2, 120 h, 5 days culture
Method: as §1, §2, §3

[4] = system: human non-small cell lung cancer NCI-H358; test: In vivo drug efficacy test (2): subcutaneous xenograft tumor model; set-up: species or system BALB/c nude mice; details: 100 mg/kg (0-6 days) + 50 mg/kg (7-20 days)
Method: (§4) To evaluate the in vivo efficacy of the test compounds in a subcutaneous xenograft tumor model of human non-small cell lung cancer NCI-H358.
BALB/c nude mice, female, 6-8 weeks old, weighing 18-21 grams. A total of 100 were required. They were provided by Shanghai Lingchang Experimental Animal Co., Ltd ( ? ? ). NCI-H358 tumor cells were resuspended in PBS to prepare 0.1 mL (5×10^6) of cell suspension, which was inoculated subcutaneously on the right back of each mouse (5×10^6/mouse) to wait for tumor growth. When the average tumor volume reached about 150-200 mm^3, randomized grouping and administration were performed, and the administration dose was shown in Table 6. The diameter of the tumor was measured with vernier calipers twice a week. The formula for calculating the tumor volume is: V=0.5a×b^2, wherein a and b represent the long and short diameters of the tumor, respectively. The tumor suppressive effect of the compounds was evaluated by TGI (%). TGI (%) reflects the tumor growth inhibition rate. Calculation of TGI (%): TGI (%)=[(1−(average tumor volume at the end of administration in a treatment group−average tumor volume at the beginning of administration in the treatment group))/(average tumor volume at the end of treatment in the solvent control group−average tumor volume at the beginning of treatment in the solvent control group)]×100%.

[5] = system: human pancreatic cancer x-MIA-PaCa2 cell; test: In vivo drug efficacy test (3): subcutaneous xenograft tumor model; set-up: species or system NU/NU mice; details: 50 mg/kg
Method: To evaluate the in vivo efficacy of the test compounds in a subcutaneous xenograft tumor model of human pancreatic cancer x-MIA-PaCa2 cell.
NU/NU mice, female, 6-8 weeks old, weighing 17-20 grams. A total of 100 were required (additional 30% of animals were inoculated). They were provided by Beijing Vital River Science and Technology Co., Ltd. Each mouse was subcutaneously inoculated with 0.2 mL (10×10^6) of x-MIA-PaCa2 cells (plus matrigel, with the volume ratio being 1:1) on the right back. When the average tumor volume reached about 150 mm^3, grouping and administration were performed, and the administration dose was shown in Table 7. The diameter of the tumor was measured with vernier calipers twice a week. The formula for calculating the tumor volume is: V=0.5a×b^2, wherein a and b represent the long and short diameters of the tumor, respectively. The tumor suppressive effect of the compounds was evaluated by TGI (%). TGI (%) reflects the tumor growth inhibition rate. Calculation of TGI (%): TGI (%)=[(1−(average tumor volume at the end of administration in a treatment group−average tumor volume at the beginning of administration in the treatment group))/(average tumor volume at the end of treatment in the solvent control group−average tumor volume at the beginning of treatment in the solvent control group)]×100%.

[6] = system: human non-small cell lung cancer NCI-H358; test: In vivo drug efficacy test (4): subcutaneous xenograft tumor model; set-up: species or system BALB/c nude mice; details: for TGI: day 27
Method: as §4
BALB/c nude mice, female, 6-8 weeks old, weighing 18-20 grams. A total of 40 were required. They were provided by Shanghai Lingchang Experimental Animal Co., Ltd ( ? ? ). NCI-H358 tumor cells were resuspended in PBS to prepare a cell suspension with a density of 5×10^7/mL, which was inoculated subcutaneously on the right back of each mouse (0.1 mL, 5×10^6/mouse) to wait for tumor growth. When the average tumor volume reached about 166 mm^3, randomized grouping and administration were performed, and the administration dose was shown in Table 8. The diameter of the tumor was measured with vernier calipers twice a week.
The formula for calculating the tumor volume is: V=0.5a×b^2, wherein a and b represent the long and short diameters of the tumor, respectively. The tumor suppressive effect of the compounds was evaluated by TGI (%). TGI (%) reflects the tumor growth inhibition rate. Calculation of TGI (%): TGI (%)=[(1−(average tumor volume at the end of administration in a treatment group−average tumor volume at the beginning of administration in the treatment group))/(average tumor volume at the end of treatment in the solvent control group−average tumor volume at the beginning of treatment in the solvent control group)]×100%.

[7] = 50 mg/kg (0-2 days) + 1.5 mg/kg (3-27 days)

## C=CC(=O)N1CCN(c2ncnc3c(=O)n(-c4c(N)c(Cl)cc(Cl)c4F)c(C(F)(F)F)cc23)CC1 [Example 49]
[1]
  IC50: 50 nM
[2]
  IC50: 7320 nM
[3]
  IC50: 70 nM
[4]
  Tumor volume (day 20): 30 mm^3
[4]; day 20
  TGI: 125.66%
[5]
  Tumor volume (day 14): 204 mm^3
[5]; day 14
  TGI: 96.77%
[6]; 5 mg/kg
  Tumor volume (day 27): 117 mm^3
  TGI: 107.25%
[6]; 15 mg/kg
  Tumor volume (day 27): 56 mm^3
  TGI: 116.27%
[6]; [7]
  Tumor volume (day 27): 295 mm^3
  TGI: 80.92%
